Data taken from ChEMBL document CHEMBL3301472, “MMV Malaria Box HIV and cytotoxicity screening”.

Columns and labels:
Type in all cases: toxicity, cell-based
[1] = MMV: MTT Cytotoxicity Assay Day 7 pi of Assay #6 (compound washed out Day 1 pi), U87-CD4-CCR5 cells, % cell death @ 5mM compound; conditions: human, u87-cd4-ccr5, 5000 µM
[2] = MMV: MTT Cytotoxicity Assay Day 3 pi, U87-CD4-CXCR4 cells, % cell death @ 5mM compound; conditions: human, u87-cd4-cxcr4, 5000 µM
[3] = MMV: MTT Cytotoxicity Assay Day 3 pi, U87-CD4-CCR5 cells, % cell death @ 5mM compound; conditions: human, u87-cd4-ccr5, 5000 µM
[4] = MMV: MTT Cytotoxicity Assay Day 7 pi of Assay #11 (NO washout), U87-CD4-CXCR4 cells, % cell death @ 5mM compound; conditions: human, u87-cd4-cxcr4, 5000 µM
[5] = MMV: MTT Cytotoxicity Assay Day 7 pi of Assay #10 (NO washout), U87-CD4-CCR5 cells, % cell death @ 5mM compound; conditions: human, u87-cd4-ccr5, 5000 µM
[6] = MMV: MTT Cytotoxicity Assay Day 7 pi of Assay #7 (compound washed out Day 1 pi), U87-CD4-CXCR4 cells, % cell death @ 5mM compound; conditions: human, u87-cd4-cxcr4, 5000 µM

Row | Structure (SMILES) | % Cell Death [1] | % Cell Death [2] | % Cell Death [3] | % Cell Death [4] | % Cell Death [5] | % Cell Death [6]
1 | CCn1nc(-c2ccc(C(=O)OC)cc2)nc2c(=O)n(C)c(=O)nc1-2 | 6 | 21 | 1 | 18 | -2 | -23
2 | Cc1cc(NC(=O)c2cccc(C(F)(F)F)c2)n(-c2nc(-c3ccc4c(c3)OCO4)cs2)n1 | 16 | 17 | 40 | -57 | 9 | -18
3 | Cc1cccc(-n2ncc3c(O)nc(-n4nc(C)cc4NC(=O)c4cc5ccccc5o4)nc32)c1 | 23 | 39 | 6 | 82 | 23 | 1
4 | COc1cccc(Nc2nc(NCCO)c3ccccc3n2)c1.Cl | 44 | -1 | 15 | 46 | 3 | -16
5 | O=C(NC1CCN(Cc2ccccc2)CC1)c1cc(-c2ccncc2)nc2ccc(Cl)cc12 | -18 | 31 | 13 | 58 | 2 | 8
6 | CCC(O)c1ccc(Br)cc1NC(=O)c1cccc(Cl)c1 (centres undefined) | -24 | 11 | -44 | -37 | 6 | 28
7 | CN(C)CCCNCc1ccc(-c2ccc(F)c(Cl)c2)o1.Cl | 16 | 27 | 20 | -24 | 8 | -17
8 | O=c1nc(C=Cc2ccc(Br)cc2)oc2ccccc12 | -7 | 23 | 17 | -17 | 35 | 24
9 | COc1ccc2nc(N)nc(C)c2c1 | -35 | 34 | 15 | 15 | 17 | -3
10 | Cc1[nH]c(-c2ccc(F)cc2)cc1C(=O)NC1CCN(Cc2ccccc2)CC1 | 52 | 41 | 65 | 29 | 44 | 6
11 | COc1cc(OC)cc(C(=O)Nc2ccc(-c3nc4ccccc4[nH]3)cc2)c1 | 59 | 63 | 47 | 116 | 115 | 55
12 | Cc1ccc(Cl)cc1N1CCN(CCCNC(=O)C2CCN(c3nc4ccccc4[nH]3)CC2)CC1 | 31 | 6 | 86 | 57 | 91 | -32
13 | O=C(Nc1ccc(CN2CCOCC2)cc1)c1ccc(-c2cc(Cl)ccc2Cl)o1 | -8 | 28 | -2 | 36 | 41 | -21
14 | CCOc1ccc(C2N(C)c3ccccc3N2C)cc1 | 105 | 79 | 92 | 100 | 115 | 98
15 | COc1cccc(C(=O)Nc2ccc(-c3nc4ccccc4[nH]3)cc2)c1 | 3 | 39 | 27 | 35 | 34 | 7
16 | O=C(Nc1cccc(-c2nc3ccccc3[nH]2)c1)c1cccc(NC(=O)c2ccco2)c1 | 11 | 22 | -8 | -18 | 20 | -31
17 | CCN(Cc1ccccc1)C1CCN(Cc2cc(Br)ccc2O)CC1.O=C(O)C(=O)O | 6 | 27 | -5 | -25 | 20 | 0
18 | COc1nc(Nc2ccc(C(C)C)cc2)nc(OC)n1 | 33 | 32 | -1 | 24 | 33 | -7
19 | CCOc1cccc(C(=O)Nc2ccc(-c3nc4ccccc4[nH]3)cc2)c1 | 8 | 46 | -33 | 65 | 6 | -23
20 | Cc1c(C)n(Cc2ccc(F)cc2)c2ccc(C(=O)NCc3ccco3)cc12 | 78 | 95 | 106 | 103 | 146 | 18

Row | Structure (SMILES) | % Cell Death [1] | % Cell Death [2] | % Cell Death [3] | % Cell Death [4] | % Cell Death [5] | % Cell Death [6]
21 | CCOc1ccccc1NC(=O)CN1CCN(C(=O)c2ccco2)CC1 | 13 | -22 | -66 | 36 | 37 | 38
22 | O=C(Nc1ccc(N2CCN(Cc3ccccc3)CC2)cc1)c1cccs1.O=C(O)C(F)(F)F | 4 | 55 | -2 | 28 | 124 | -26
23 | O=C(Nc1ccc(N2CCCCC2)c(Cl)c1)c1ccc(Br)o1 | 26 | 61 | 97 | 99 | 76 | 53
24 | Cc1ccc(Cn2c(N3CCC(C(=O)NCc4cccs4)CC3)nc3ccccc32)cc1 | 12 | 4 | 5 | 78 | 18 | 58
25 | O=C1CC(O)(C(F)(F)C(F)(F)F)Oc2ccccc21 (centres undefined) | 4 | 32 | -14 | 35 | 17 | -15
26 | CC(C)c1ccc(CNCC(O)c2ccccc2)cc1.Cl (centres undefined) | -1 | 29 | -53 | 3 | 14 | -18
27 | COc1ccccc1CNC(=O)C1c2ccccc2C(=O)N(CC(C)C)C1c1cccs1 (centres undefined) | 67 | 23 | 108 | 43 | 60 | -8
28 | OC(CNC1CCCC1)Cn1c2ccccc2c2ccccc21 (centres undefined) | 2 | 31 | 10 | -3 | 7 | -15
29 | CC(C)OCc1cc(CN2CCN(c3cccc(Cl)c3)CC2)c(O)c2ncccc12 | 19 | 19 | 14 | 32 | 125 | -12
30 | CCCCc1ccc(NS(=O)(=O)c2cc3c4c(c2)CCN4C(=O)CC3)cc1 | 47 | 20 | 6 | 93 | 85 | 1
31 | CCOc1ccccc1CNC(=O)C1c2ccccc2C(=O)N(CC(C)C)C1c1cccs1 (centres undefined) | 2 | 12 | -26 | 4 | 20 | -26
32 | Cl.OC(CNCc1ccccc1)Cn1c2ccccc2c2ccccc21 (centres undefined) | 10 | 18 | 19 | -23 | 11 | -9
33 | Oc1c2c(nc3cc(-c4ccccc4)nn13)CCCC2 | 26 | 6 | 37 | -22 | 1 | -10
34 | CCOC(=O)C1CCN(C(=O)CN2C(=O)c3ccccc3C2c2c[nH]c3ccccc23)CC1 (centres undefined) | 52 | 35 | 107 | 112 | 109 | 39
35 | CCOc1ccc(CCNC(=O)c2cccs2)cc1OCC | -20 | 30 | 45 | -9 | 2 | -3
36 | O=c1c2c([nH]c3ccccc13)CCCC2 | 7 | 33 | 9 | -44 | -11 | -18
37 | CCCCOc1ccc(C(=O)Nc2cc(C)on2)cc1 | -17 | 31 | 54 | 33 | 4 | -14
38 | CC1CCCCN1CCCNC(=O)c1ccc2c(c1)sc1nc(-c3ccc(F)cc3)cn12 (centres undefined) | 29 | 0 | -29 | 61 | -20 | -50
39 | CCCCN(CCCC)S(=O)(=O)c1ccc(NC(=O)c2ccco2)cc1 | 36 | 45 | 58 | 39 | 74 | 41
